Data as given in patent US11571397B2, “Compositions and methods for treating seizure-induced sudden death” (ZOGENIX INTERNATIONAL LIMITED, priority 2018, dated 2023).

Legend:
DBA/1 mice [1] = test: AGSz and S-IRA in DBA/1 mice, 8-hour testing protocol; type: in vivo, mouse
Source text: (§1) The typical seizure semiology in the DBA/1 mice begins with a wild running phase, followed by clonic-tonic seizures and then tonic hind-limb extension that immediately leads to S-IRA during post-ictal behavioral depression (PID). The onset of S-IRA was visually determined by the occurrence of respiratory failure following loss of the righting reflex, relaxation of the pinnae, and then a generalized loss of muscle tone. These behaviors are reliable indicators of imminent sudden death in DBA mice. Resuscitation was initiated within 10 s after pinna relaxation and the generalized loss of muscle tone, which was effective in reversing S-IRA and reviving >90% of the mice. The mice were placed in a supine position, and a polyethylene tube (4.4 mm external diameter) connected to the outflow of a rodent respirator (Harvard Apparatus 680), pumping one cc of room air at 200 strokes/min, was the placed over the nostrils, which produced observable displacement of the chest. Respiratory support was provided until spontaneous breathing rhythm returned, which required ˜19 sec. The mice were monitored until they regained the righting reflex and then returned to their home cage. Video recordings of seizure behaviors and recovery were made for off-line evaluation and analysis, including the duration of PID, as indicated by time from muscle tone loss to return of the righting reflex.
The experiments herein disclosed examined the dose-response relationship of FFA (10-40 mg/kg, i.p.) on AGSz-induced behaviors in DBA/1 mice compared to vehicle (saline) treated control mice using different seizure-testing protocols. This initial protocol involved induction of AGSz at 30 min, 12 h and 24 h after drug administration, and subsequently at 24 h intervals until susceptibility to S-IRA returned. These studies were aimed at determining whether FFA can reduce the incidence (frequency) and severity of AGSz and susceptibility to S-IRA. […] To determine the effect of FFA on the severity of AGSz in DBA/1 mice, the ordinal scoring system of De Sarro and coworkers was used: no seizure=0; wild running=1; clonic seizure=2; tonic seizure=3; death/S-IRA=4. The median effective dose (ED50) for FFA for blocking AGSz at 30 min following the i.p. injection in DBA/1 mice was calculated using a second order polynomial equation (y=65.113x^2-2.0715x-63.578) that gave the best fit (R^2=0.9989).
The videos of seizure behaviors were analyzed visually, and the incidence (frequency) of AGSz, seizure severity, and incidence (frequency) of S-IRA following drug treatment were compared statistically to vehicle controls using the Chi-square, Mann-Whitney U or paired samples t-test with SPSS software. The ED50 was calculated using SigmaPlot 13 and Microsoft® Excel. The experimental protocols used in these studies were approved by the Laboratory Animal Care and Use Committee of Southern Illinois University School of Medicine, which are in accordance with National Institutes of Health guidelines for the care and use of laboratory animals. Measures to minimize animal usage as well as pain and discomfort were included in these procedures.
FIGS. 2A through 2D show a time-course of selective S-IRA blocking effect of FFA in DBA/1 mice (8 h testing protocol). The 8-h testing protocol during the first 24 h was employed in the next group of studies of the effect of 5-20 mg/kg (i.p.) doses of FFA. […] The severity of AGSz remained unaffected in the mice that received 5 (light horizontal line bars; n=9) mg/kg FFA. A significant return of AGSz severity among the FFA treated DBA/1 mice occurred by 24 h. [**p<0.01; #p<0.001 indicate statistically different from controls, Mann-Whitney U test].

DBA/1 mice [2] = test: AGSz and S-IRA in DBA/1 mice tested for the first time at 16 h after FFA pretreatment; type: in vivo, mouse
Source text: as §1
FIGS. 4A and 4B illustrate the reduction in the incidence of severe seizures and prevention of S-IRA by FFA pretreatment. In subsequent experiments, AGSz were examined in DBA/1 mice that were treated with 15 mg/kg of FFA i.p. but were initially tested at 16 h. […] [#p<0.001 (Chi-square test] (FIG. 4B). The return of S-IRA susceptibility (94.5%) in the FFA treated mice occurred at 48 h consistent with the previous findings (FIG. 2C).

[3] = Preliminary pharmacokinetic experiments in DBA/1 mice; type: in vivo, mouse; details: 16 h after 15 mg/kg
Description: DBA/1 mice show consistent susceptibility to sudden death due to S-IRA immediately following AGSz unless resuscitation is rapidly provided. In the present study FFA exerted a significant dose- and time-dependent blockade of S-IRA and AGSz. […] The significant incidence of selective S-IRA blockade was also seen in the mice that were tested initially at 16 h following 15 mg/kg of FFA (FIG. 4B), further confirming the effectiveness of the drug and the time-course of the effect. […] Furthermore, the dose of 15 mg/kg FFA in adult mouse, based on body surface areas in accordance with Reagan-Shaw and co-workers, translates to the clinically effective range [1.8 mg/kg/day (child) or 1.2 mg/kg/day (adult)] used in patients. The presently disclosed FFA doses are also similar to those in the rodent studies, which established the original usefulness of this drug.

[4] = system: zebrafish model of Dravet syndrome; details: in vivo; cited from earlier work
[5] = 15 mg/kg i.p., first tested at 16 h (n=73)

## CCNC(C)Cc1cccc(C(F)(F)F)c1 (racemic) [FFA, 3-trifluoromethyl-N-ethylamphetamine]
DBA/1 mice [1]; 5 mg/kg
  blocking any AGSz behavior: ineffective
  effect against tonic seizures: ineffective
  incidence of S-IRA: not affected
  severity of AGSz: unaffected
DBA/1 mice [1]; 15 mg/kg, 16 h time point (n=5)
  mice with selective blockade of S-IRA among those that showed tonic AGSz: 100%
DBA/1 mice [1]; 15 mg/kg, during time-course studies
  total incidence of selective S-IRA blockade: 70%
DBA/1 mice [1]; 10, 15 and 20 mg/kg i.p., starting at 8 h, vs saline
  median AGSz severity scores: significant reduction
DBA/1 mice [1]; 10, 15 and 20 mg/kg, starting at 8 h, vs saline
  incidence of S-IRA: significant reduction
DBA/1 mice [1]; 10-20 mg/kg
  return of susceptibility to tonic seizures: 16 to 48 h
DBA/1 mice [1]; 10-20 mg/kg, at 8 h, vs saline
  incidence of tonic seizures: significantly reduced
DBA/1 mice [1]; 16 h after 15 mg/kg, mice with selective S-IRA blockade, pre-drug 168.6±43.4 s
  duration of PID (loss of righting reflex): 34.6 ± 13.3 s
DBA/1 mice [1]; FFA treated mice, 8-h protocol
  return of AGSz severity: ≤ 24 h
  return of S-IRA susceptibility: 48 h
DBA/1 mice [2]; [5]
  overall incidence of S-IRA: 21.9%
  overall incidence of tonic seizures: 68.5%
DBA/1 mice [2]; 15 mg/kg, 16 h (n=50)
  incidence of selective S-IRA blockade among mice that continued to display tonic seizures: 68%
DBA/1 mice [2]; at 48 h after 15 mg/kg
  return of S-IRA susceptibility: 94.5%
[3]
  plasma level of FFA and area under the curve vs levels in Dravet syndrome patients after single oral dose (0.8 mg/kg): comparable
[4]
  blocking electrographic and seizure-like behavioral activity: effective
